Data taken from the supplement of paper PMC12317010.
Structures can show the parent of a compound that is named as a salt.

Assay: collision cross section in nitrogen (drift tube, single-field); higher = larger gas-phase ion size
[1] = ion type: [M+H], ion source: APCI, ion mode: Positive
[2] = ion type: [M+H], ion source: ESI, ion mode: Positive
[3] = ion type: [M-H], ion source: ESI, ion mode: Negative
[4] = ion type: [M+Na], ion source: ESI, ion mode: Positive
[5] = ion type: [M+], ion source: APCI, ion mode: Positive
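Also: chemical standards at 10 µM analysed by drift tube IMS-QTOF MS in about 3.95 torr nitrogen, mean of duplicate injections differing ≤1%, mass error below 10 ppm.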

SMILES | collision cross section in nitrogen [1] | collision cross section in nitrogen [2] | collision cross section in nitrogen [3] | collision cross section in nitrogen [4] | collision cross section in nitrogen [5]
O=C1OC2(c3ccccc31)c1cc(I)c(O)c(I)c1Oc1c2cc(I)c(O)c1I [FD&C Red 3] | 211.7 Å² | 211.4 Å² | 217.9 Å² |  | 
Cc1cc(C)c(S(=O)(=O)O)cc1N=Nc1cc(S(=O)(=O)O)c2ccccc2c1O [FD&C Red 4] |  |  | 208.6 Å² |  | 
O=S(=O)(O)c1ccc(N=Nc2c(O)ccc3cc(S(=O)(=O)O)ccc23)cc1 [FD&C Yellow 6] |  |  | 203.1 Å² |  | 
Cc1[nH]cnc1C[C@H]1CCc2c(C)c3ccccc3n2C1=O [Fabesetron hydrochloride] | 175.1 Å² | 174.8 Å² |  |  | 
N#Cc1ccc(C2CCCc3cncn32)cc1 (centres undefined) [Fadrozole] |  | 157.3 Å² |  |  | 
NC(N)=Nc1nc(CSCCC(N)=NS(N)(=O)=O)cs1 [Famotidine] | 168.7 Å² | 168.9 Å² | 169.4 Å² | 174.3 Å² | 
CC1(c2ccc(Oc3ccccc3)cc2)OC(=O)N(Nc2ccccc2)C1=O (centres undefined) [Famoxadone] |  |  | 195.7 Å² | 210.6 Å² | 
COP(=S)(OC)Oc1ccc(S(=O)(=O)N(C)C)cc1 [Famphur] | 174 Å² |  |  | 173.8 Å² | 
CCc1cc(C2=C(C(=O)O)N(c3ccccc3C(F)(F)F)S(=O)(=O)c3ccccc32)cc2c1OCO2 [Fandosentan potassium salt] |  |  | 204.7 Å² | 216.3 Å² | 
Cc1oc(-c2ccccc2)nc1CCOc1ccc(C[C@H](Nc2ccccc2C(=O)c2ccccc2)C(=O)O)cc1 [Farglitazar] | 217.4 Å² | 217.1 Å² | 228.5 Å² | 224.1 Å² | 
Cc1nc(-c2ccc(OCC(C)C)c(C#N)c2)sc1C(=O)O [Febuxostat] |  | 183.6 Å² |  |  | 
NC(=O)OCC(COC(N)=O)c1ccccc1 [Felbamate] |  |  |  | 159.6 Å² | 
CSC1=N[C@@](C)(c2ccccc2)C(=O)N1Nc1ccccc1 [Fenamidone] | 172.6 Å² | 172.7 Å² | 174.6 Å² |  | 
CCOP(=O)(NC(C)C)Oc1ccc(S(C)(=O)=O)c(C)c1 (centres undefined) [Fenamiphos sulfone] | 182.4 Å² | 180.3 Å² | 176.7 Å² | 181.5 Å² | 
CCOP(=O)(NC(C)C)Oc1ccc(SC)c(C)c1 (centres undefined) [Fenamiphos] | 172.5 Å² | 171.3 Å² | 172.2 Å² | 178.1 Å² | 
COC(=O)Nc1nc2cc(Sc3ccccc3)ccc2[nH]1 [Fenbendazole] | 175 Å² | 174.6 Å² | 174.9 Å² |  | 
CC1(C(=O)Nc2ccc(O)c(Cl)c2Cl)CCCCC1 [Fenhexamid] | 166.7 Å² | 166.4 Å² | 172.6 Å² |  | 
CC(C)OC(=O)C(C)(C)Oc1ccc(C(=O)c2ccc(Cl)cc2)cc1 [Fenofibrate] |  | 192.8 Å² |  | 198.4 Å² | 
CCOC(=O)[C@H](C)Oc1ccc(Oc2nc3ccc(Cl)cc3o2)cc1 [Fenoxaprop-(2S)-ethyl] |  | 189.8 Å² |  | 189 Å² | 
CCOC(=O)[C@@H](C)Oc1ccc(Oc2nc3ccc(Cl)cc3o2)cc1 [Fenoxaprop-P-ethyl] | 189.9 Å² | 189.5 Å² |  | 189 Å² | 
CCOC(=O)C(C)Oc1ccc(Oc2nc3ccc(Cl)cc3o2)cc1 (centres undefined) [Fenoxaprop-ethyl] | 190.2 Å² | 189.3 Å² |  | 189.1 Å² | 
CCOC(=O)NCCOc1ccc(Oc2ccccc2)cc1 [Fenoxycarb] |  |  |  | 184.6 Å² | 
CC1(C)C(C(=O)OC(C#N)c2cccc(Oc3ccccc3)c2)C1(C)C (centres undefined) [Fenpropathrin] |  |  |  | 186 Å² | 
CCOP(=S)(OCC)Oc1ccc(S(C)=O)cc1 (centres undefined) [Fensulfothion] |  | 174.5 Å² |  | 169.7 Å² | 
COP(=S)(OC)Oc1ccc(SC)c(C)c1 [Fenthion] |  | 161.6 Å² |  | 166.3 Å² | 
CN(C)C(=O)Nc1ccccc1 [Fenuron] | 134 Å² | 134.4 Å² | 137 Å² | 144.7 Å² | 

SMILES | collision cross section in nitrogen [1] | collision cross section in nitrogen [2] | collision cross section in nitrogen [3] | collision cross section in nitrogen [4] | collision cross section in nitrogen [5]
CC(C)(C)NC(=O)[C@H]1CC[C@H]2[C@@H]3CC[C@H]4NC(=O)C=C[C@]4(C)[C@H]3CC[C@]12C [Finasteride] | 204.7 Å² | 203.3 Å² | 198.1 Å² | 226.8 Å² | 
O=C(COc1ccc(Cl)cc1)N1CCN(Cc2ccc3c(c2)OCO3)CC1 [Fipexide hydrochloride] | 190.4 Å² | 190.3 Å² |  | 202.1 Å² | 
N#Cc1nn(-c2c(Cl)cc(C(F)(F)F)cc2Cl)c(N)c1S(=O)C(F)(F)F (centres undefined) [Fipronil] |  |  | 178.1 Å² |  | 
CC(C)OC(=O)C(C)N(C(=O)c1ccccc1)c1ccc(F)c(Cl)c1 (centres undefined) [Flamprop-isopropyl] | 182.1 Å² |  |  | 193.4 Å² | 
O=c1cc(-c2ccccc2)oc2ccccc12 [Flavone] | 146.6 Å² | 146.5 Å² |  |  | 
COc1ncc(F)c2nc(S(=O)(=O)Nc3c(F)cccc3F)nn12 [Florasulam] | 172.3 Å² | 172.1 Å² | 174.5 Å² | 181.7 Å² | 
CCCCOC(=O)C(C)Oc1ccc(Oc2ccc(C(F)(F)F)cn2)cc1 (centres undefined) [Fluazifop-butyl] | 195.5 Å² | 195.1 Å² | 188.7 Å² | 194.4 Å² | 
O=[N+]([O-])c1cc(C(F)(F)F)c(Cl)c([N+](=O)[O-])c1Nc1ncc(C(F)(F)F)cc1Cl [Fluazinam] |  |  | 182.2 Å² |  | 
Cc1cc(C(F)(C(F)(F)F)C(F)(F)F)ccc1NC(=O)c1cccc(I)c1C(=O)NC(C)(C)CS(C)(=O)=O [Flubendiamide] |  |  | 222.1 Å² | 222.6 Å² | 
COc1nn(C(=O)NS(=O)(=O)c2ccccc2OC(F)(F)F)c(=O)n1C [Flucarbazone-sodium] |  |  | 182.9 Å² |  | 
OC(Cn1cncn1)(Cn1cncn1)c1ccc(F)cc1F [Fluconazole] | 167.5 Å² | 167.2 Å² |  | 172 Å² | 
CC(C)C(C(=O)OC(C#N)c1cccc(Oc2ccccc2)c1)c1ccc(OC(F)F)cc1 (centres undefined) [Flucythrinate] | 214.8 Å² |  |  | 208.3 Å² | 
N#Cc1c[nH]cc1-c1cccc2c1OC(F)(F)O2 [Fludioxonil] |  |  | 146.3 Å² |  | 
CC(C)N(C(=O)COc1nnc(C(F)(F)F)s1)c1ccc(F)cc1 [Flufenacet] |  |  |  | 187.5 Å² | 
O=C(O)c1ccccc1Nc1cccc(C(F)(F)F)c1 [Flufenamic acid] |  |  | 160.9 Å² |  | 157.7 Å²
O=C(NC(=O)c1c(F)cccc1F)Nc1ccc(Oc2ccc(C(F)(F)F)cc2Cl)cc1F [Flufenoxuron] |  |  | 215.8 Å² |  | 
CCOC(=O)COc1cc(-n2ncc(C(F)(F)F)c(C)c2=O)c(F)cc1Cl [Flufenpyr-ethyl] |  | 182.1 Å² | 183.3 Å² | 191.4 Å² | 
Cc1ccn2nc(S(=O)(=O)Nc3c(F)cccc3F)nc2n1 [Flumetsulam] | 167.4 Å² | 167.7 Å² | 172.5 Å² | 176.7 Å² | 
CCCCCOC(=O)COc1cc(N2C(=O)C3=C(CCCC3)C2=O)c(F)cc1Cl [Flumiclorac-pentyl] |  |  | 196.2 Å² | 209.5 Å² | 
C#CCN1C(=O)COc2cc(F)c(N3C(=O)C4=C(CCCC4)C3=O)cc21 [Flumioxazin] |  | 183.7 Å² | 184.5 Å² |  | 181 Å²
CC1(C)O[C@@H]2C[C@H]3[C@@H]4C[C@H](F)C5=CC(=O)C=C[C@]5(C)[C@@]4(F)[C@@H](O)C[C@]3(C)[C@]2(C(=O)CO)O1 [Fluocinolone acetonide] |  |  | 194.2 Å² | 226.8 Å² | 
CN(C)C(=O)Nc1cccc(C(F)(F)F)c1 [Fluometuron] | 150.5 Å² | 150.1 Å² | 146.2 Å² | 155 Å² | 
O=C(NCc1ncc(C(F)(F)F)cc1Cl)c1c(Cl)cccc1Cl [Fluopicolide] |  | 175.4 Å² |  | 187 Å² | 
O=C1OC2(c3ccc(O)cc3Oc3cc(O)ccc32)c2ccccc21 [Fluorescein sodium] | 174.3 Å² | 173.8 Å² | 176.1 Å² | 189.1 Å² | 
O=C1OC2(c3ccc(O)cc3Oc3cc(O)ccc32)c2ccccc21 [Fluorescein] | 174.2 Å² | 174.2 Å² | 176.8 Å² | 190.6 Å² | 
CCOC(=O)COC(=O)c1cc(Oc2ccc(C(F)(F)F)cc2Cl)ccc1[N+](=O)[O-] [Fluoroglycofen-ethyl] |  |  |  | 210.7 Å² | 
